Laboratory results from patent publication US20240200091A1, “USE OF PROTOPORPHYRINOGEN OXIDASE” (BEIJING DABEINONG BIOTECHNOLOGY CO., LTD., priority 2021, published 2024).

Legend:
Format in all cases: in vivo
[1] = tested on: Arabidopsis thaliana T1 plants; experiment: flumioxazin tolerance of transgenic Arabidopsis thaliana T1 plants (spray, grade of pesticide damage); settings: for The grade of pesticide damage/plant: grade 0 / The grade of pesticide damage/plant: grade 1 / The grade of pesticide damage/plant: grade 2 / The grade of pesticide damage/plant: grade 3: 7 DAT, number of plants of 24 per genotype, grades
Excerpt: (§1) The transformed Arabidopsis thaliana T1 plants were initially selected using glufosinate herbicide. The Arabidopsis thaliana T1 plants (PPO1A) into which the PPO1A nucleotide sequence was introduced, the Arabidopsis thaliana T1 plants (PPO2A) into which the PPO2A nucleotide sequence was introduced, the Arabidopsis thaliana T1 plants (PPO3A) into which the PPO3A nucleotide sequence was introduced, the Arabidopsis thaliana T1 plants (PPO4A) into which the PPO4A nucleotide sequence was introduced, the Arabidopsis thaliana T1 plants (PPO5A) into which the PPO5A nucleotide sequence was introduced, the Arabidopsis thaliana T1 plants (PPO6A) into which the PPO6A nucleotide sequence was introduced, the Arabidopsis thaliana T1 plants (PPO7A) into which the PPO7A nucleotide sequence was introduced, the Arabidopsis thaliana T1 plants (PPO8A) into which the PPO8A nucleotide sequence was introduced, the Arabidopsis thaliana T1 plants (PPO9A) into which the PPO9A nucleotide sequence was introduced, the Arabidopsis thaliana T1 plants (PPO10A) into which the […] nucleotide sequence was introduced, the Arabidopsis thaliana T1 plants (PPO11A) into which the PPO11A nucleotide sequence was introduced, the Arabidopsis thaliana T1 plants (PPO12A) into which the PPO12A nucleotide sequence was introduced, the Arabidopsis thaliana T1 plants (PPO13A) into which the PPO13A nucleotide sequence was introduced, the Arabidopsis thaliana T1 plants (PPO14A) into which the PPO14A nucleotide sequence was introduced, the Arabidopsis thaliana T1 plants (PPO-ATA) into which the PPO-ATA nucleotide sequence was introduced, the Arabidopsis thaliana T1 plants (PPO-APA) into which the PPO-APA nucleotide sequence was introduced, the Arabidopsis thaliana T1 plants (control vector) into which the control vector was introduced, and the wild-type Arabidopsis thaliana plants (CK) (with 24 plants being included in each genotype) (18 days after sowing) were sprayed with oxyfluorfen at three concentrations (180 g ai/ha (one-fold field concentration, 1×), 720 g ai/ha (four-fold field concentration, 4×), and 0 g ai/ha (water, 0×)), saflufenacil at three concentrations (25 g ai/ha (one-fold field concentration, 1×), 100 g ai/ha (four-fold field concentration, 4×), and 0 g ai/ha (water, 0×)), flumioxazin at three concentrations (60 g ai/ha (one-fold field concentration, 1×), 240 g ai/ha (four-fold field concentration, 4×), and 0 g ai/ha (water, 0×), and sulfentrazone at three concentrations (450 g ai/ha (one-fold field concentration, 1×), 900 g ai/ha (two-fold field concentration, 2×), and 0 g ai/ha (water, 0×) to determine the tolerance of Arabidopsis thaliana to the herbicides. After 7 days of spraying (7 DAT), the damage level of each plant caused by the herbicide was evaluated according to the average of the damage levels (%) of plants (the average of the damage levels (%) of plants=the injured leaf area/the total leaf area×[…]), i.e., the grade of pesticide damage: grade 0 means that the growth status of plants is essentially consistent with those sprayed with the blank solvent (water); grade 1 means that the average of the damage levels of plants is less than 10%; grade 2 means that the average of the damage levels of plants is greater than […]; and grade 3 means that the average of the damage levels of plants is 100%. The plants having a growth status falling within grades 0 and 1 are classified as highly resistant plants; those having a growth status falling within grade 2 are classified as poorly resistant plants; and those having a growth status falling within grade 3 are classified as non-resistant plants.

[2] = tested on: Arabidopsis thaliana T1 plants; experiment: oxyfluorfen tolerance of transgenic Arabidopsis thaliana T1 plants (spray, grade of pesticide damage); settings: for The grade of pesticide damage/plant: grade 0 / The grade of pesticide damage/plant: grade 1 / The grade of pesticide damage/plant: grade 2 / The grade of pesticide damage/plant: grade 3: 7 DAT, number of plants of 24 per genotype, grades
Excerpt: as §1

[3] = tested on: Arabidopsis thaliana T1 plants; experiment: saflufenacil tolerance of transgenic Arabidopsis thaliana T1 plants (spray, grade of pesticide damage); settings: for The grade of pesticide damage/plant: grade 0 / The grade of pesticide damage/plant: grade 1 / The grade of pesticide damage/plant: grade 2 / The grade of pesticide damage/plant: grade 3: 7 DAT, number of plants of 24 per genotype, grades
Excerpt: as §1

[4] = tested on: Arabidopsis thaliana T1 plants; experiment: sulfentrazone tolerance of transgenic Arabidopsis thaliana T1 plants (spray, grade of pesticide damage); settings: for The grade of pesticide: grade 0 / The grade of pesticide: grade 1 / The grade of pesticide: grade 2 / The grade of pesticide: grade 3: 7 DAT, number of plants of 24 per genotype, grades
Excerpt: as §1

[5] = saflufenacil at four-fold field concentration, of 24 plants

Molecule | The grade of pesticide damage/plant: grade 0 ([2]; oxyfluorfen 180 g ai/ha (1×)) [plant] | The grade of pesticide damage/plant: grade 1 ([2]; oxyfluorfen 180 g ai/ha (1×)) [plant] | The grade of pesticide damage/plant: grade 2 ([2]; oxyfluorfen 180 g ai/ha (1×)) [plant] | The grade of pesticide damage/plant: grade 3 ([2]; oxyfluorfen 180 g ai/ha (1×)) [plant] | The grade of pesticide damage/plant: grade 0 ([2]; oxyfluorfen 720 g ai/ha (4×)) [plant] | The grade of pesticide damage/plant: grade 1 ([2]; oxyfluorfen 720 g ai/ha (4×)) [plant] | The grade of pesticide damage/plant: grade 2 ([2]; oxyfluorfen 720 g ai/ha (4×)) [plant] | The grade of pesticide damage/plant: grade 3 ([2]; oxyfluorfen 720 g ai/ha (4×)) [plant] | The grade of pesticide damage/plant: grade 0 ([3]; saflufenacil 25 g ai/ha (1×)) [plant] | The grade of pesticide damage/plant: grade 1 ([3]; saflufenacil 25 g ai/ha (1×)) [plant] | The grade of pesticide damage/plant: grade 2 ([3]; saflufenacil 25 g ai/ha (1×)) [plant] | The grade of pesticide damage/plant: grade 3 ([3]; saflufenacil 25 g ai/ha (1×)) [plant] | The grade of pesticide damage/plant: grade 0 ([3]; saflufenacil 100 g ai/ha (4×)) [plant] | The grade of pesticide damage/plant: grade 1 ([3]; saflufenacil 100 g ai/ha (4×)) [plant] | The grade of pesticide damage/plant: grade 2 ([3]; saflufenacil 100 g ai/ha (4×)) [plant] | The grade of pesticide damage/plant: grade 3 ([3]; saflufenacil 100 g ai/ha (4×)) [plant] | The grade of pesticide damage/plant: grade 0 ([1]; flumioxazin 60 g ai/ha (1×)) [plant] | The grade of pesticide damage/plant: grade 1 ([1]; flumioxazin 60 g ai/ha (1×)) [plant] | The grade of pesticide damage/plant: grade 2 ([1]; flumioxazin 60 g ai/ha (1×)) [plant] | The grade of pesticide damage/plant: grade 3 ([1]; flumioxazin 60 g ai/ha (1×)) [plant] | also measured
C#CCN1C(=O)COc2cc(F)c(N3C(=O)C4=C(CCCC4)C3=O)cc21 [flumioxazin, 2-[7-fluoro-3,4-dihydro-3-oxo-4-(2-propynyl)-2H-1,4-benzoxazin-6-yl]-4,5,6,7-tetrahydro-1H-isoindole-1,3(2H)-dione, reference compound] | – | – | – | – | – | – | – | – | – | – | – | – | – | – | – | – | – | – | – | – | effective dose distinguishing sensitive plants from plants having an average level of resistance ([1]; for Arabidopsis thaliana, flumioxazin herbicide): 60 g ai/ha
CCOc1cc(Oc2ccc(C(F)(F)F)cc2Cl)ccc1[N+](=O)[O-] [oxyfluorfen, 2-chloro-1-(3-ethoxy-4-nitrophenoxy)-4-trifluoromethylbenzene, reference compound] | – | – | – | – | – | – | – | – | – | – | – | – | – | – | – | – | – | – | – | – | effective dose distinguishing sensitive plants from plants having an average level of resistance ([2]; for Arabidopsis thaliana, oxyfluorfen herbicide): 180 g ai/ha
CC(C)N(C)S(=O)(=O)NC(=O)c1cc(-n2c(=O)cc(C(F)(F)F)n(C)c2=O)c(F)cc1Cl [saflufenacil, N′-[2-chloro-4-fluoro-5-(3-methyl-2,6-dioxo-4-(trifluoromethyl)-3,6-dihydro-1(2H)-pyrimidine)benzoyl]-N-isopropyl-N-methylsulfamide, reference compound] | – | – | – | – | – | – | – | – | – | – | – | – | – | – | – | – | – | – | – | – | effective dose distinguishing sensitive plants from plants having an average level of resistance ([3]; for Arabidopsis thaliana, saflufenacil herbicide): 25 g ai/ha
Cc1nn(-c2cc(NS(C)(=O)=O)c(Cl)cc2Cl)c(=O)n1C(F)F [sulfentrazone, N-(2,4-dichloro-5-(4-difluoromethyl-4,5-dihydro-3-methyl-5-oxo-1H-1,2,4-triazole-1-yl)phenyl)methanesulfonamide, reference compound] | – | – | – | – | – | – | – | – | – | – | – | – | – | – | – | – | – | – | – | – | effective dose distinguishing sensitive plants from plants having an average level of resistance ([4]; for Arabidopsis thaliana, sulfentrazone herbicide): 450 g ai/ha
PPO-ATA: nucleotide sequence encoding Arabidopsis protoporphyrinogen oxidase PPO-AT (SEQ ID NO:46), Arabidopsis thaliana/soybean common codon usage bias [reference compound] | 0 | 0 | 8 | 16 | 0 | 0 | 0 | 24 | 0 | 0 | 0 | 24 | 0 | 0 | 0 | 24 | 0 | 0 | 2 | 22 | tolerance to oxyfluorfen ([2]; oxyfluorfen at different concentrations (180 and 720 g ai/ha), compared with the control vector and CK): basically no tolerance; tolerance to saflufenacil ([3]; saflufenacil at four-fold field concentration (100 g ai/ha)): no tolerance; tolerance to saflufenacil ([3]; saflufenacil at one-fold field concentration (25 g ai/ha)): no tolerance; The grade of pesticide damage/plant: grade 0 ([1]; flumioxazin 240 g ai/ha (4×)): 0 plant; The grade of pesticide damage/plant: grade 1 ([1]; flumioxazin 240 g ai/ha (4×)): 0 plant; The grade of pesticide damage/plant: grade 2 ([1]; flumioxazin 240 g ai/ha (4×)): 0 plant; The grade of pesticide damage/plant: grade 3 ([1]; flumioxazin 240 g ai/ha (4×)): 24 plant; tolerance to flumioxazin ([1]; flumioxazin at different concentrations (60 and 240 g ai/ha)): basically no tolerance; The grade of pesticide: grade 0 ([4]; sulfentrazone 450 g ai/ha (1×)): 0; The grade of pesticide: grade 1 ([4]; sulfentrazone 450 g ai/ha (1×)): 0; The grade of pesticide: grade 2 ([4]; sulfentrazone 450 g ai/ha (1×)): 0; The grade of pesticide: grade 3 ([4]; sulfentrazone 450 g ai/ha (1×)): 24; The grade of pesticide: grade 0 ([4]; sulfentrazone 900 g ai/ha (2×)): 0; The grade of pesticide: grade 1 ([4]; sulfentrazone 900 g ai/ha (2×)): 0; The grade of pesticide: grade 2 ([4]; sulfentrazone 900 g ai/ha (2×)): 0; The grade of pesticide: grade 3 ([4]; sulfentrazone 900 g ai/ha (2×)): 24; tolerance to sulfentrazone ([4]; sulfentrazone at different concentrations (450 and 900 g ai/ha)): no tolerance
PPO8A: nucleotide sequence encoding microbial protoporphyrinogen oxidase PPO8 (SEQ ID NO:8), Arabidopsis thaliana/soybean common codon usage bias (nucleic acid, The nucleotide sequence of PPO8A) DNA: ATGTCAAATGAGACACAAGCCAAACAAGCTGAAACGAAACAGACTGAGTCTTCTGTCGTAAGCAAAACGCTGGTGTTGTACTCGTCCGTCGATGGTCAAACCTTAAAGATCATTAATCGTATTAAGCAGACCCTGACAGGAGAAGTTATTGTTTTGAATGTTGATGATAATCCAACTATCGATTTTAGCCTTTATCAGAAGGTCTTGATTGGAGCATCAATCCGGTATGGGAACTTTAGACCGAACATCATAAAGTTTGTTAATCAGCATAAAACACAACTTGACGCGGTGTGCAACGCTTTCTTCGTGGTTTGTCTCACAGCAAGAAAACCAGAGAAAGCTGTTCCTGAAAACAATGCATACATGAAGAAATTTGATCAGCTAAGTCAATGGCAACCTCAGTTCAAGGGAGTATTCGCGGGTGCTTTATTGTATTCACGATACAACTGGTGGCAGACACTTCTCATACAACTAATAATGAAGATGACTGGTGGCAGTACTGACAAAACTCAAGATATTGAGCTTACCGATTGGGAAAAGGTGGATTCTTTCGCACAAGACTTTGCTGCCAGGTGA | 24 | 0 | 0 | 0 | 20 | 4 | 0 | 0 | 24 | 0 | 0 | 0 | 8 | 14 | 2 | 0 | 24 | 0 | 0 | 0 | plants that exhibited high-resistant tolerance [3, 5]: 22 plants; plants that exhibited moderate- or poor-resistant tolerance [3, 5]: 2 plants; The grade of pesticide damage/plant: grade 0 ([1]; flumioxazin 240 g ai/ha (4×)): 23 plant; The grade of pesticide damage/plant: grade 1 ([1]; flumioxazin 240 g ai/ha (4×)): 1 plant; The grade of pesticide damage/plant: grade 2 ([1]; flumioxazin 240 g ai/ha (4×)): 0 plant; The grade of pesticide damage/plant: grade 3 ([1]; flumioxazin 240 g ai/ha (4×)): 0 plant; The grade of pesticide: grade 0 ([4]; sulfentrazone 450 g ai/ha (1×)): 24; The grade of pesticide: grade 1 ([4]; sulfentrazone 450 g ai/ha (1×)): 0; The grade of pesticide: grade 2 ([4]; sulfentrazone 450 g ai/ha (1×)): 0; The grade of pesticide: grade 3 ([4]; sulfentrazone 450 g ai/ha (1×)): 0; The grade of pesticide: grade 0 ([4]; sulfentrazone 900 g ai/ha (2×)): 22; The grade of pesticide: grade 1 ([4]; sulfentrazone 900 g ai/ha (2×)): 2; The grade of pesticide: grade 2 ([4]; sulfentrazone 900 g ai/ha (2×)): 0; The grade of pesticide: grade 3 ([4]; sulfentrazone 900 g ai/ha (2×)): 0
